In experiment [1] the test system is HL-60. In words: Cytotoxicity against human HL60 cells after 72 hrs by MTT assay. Particulars: HL-60, 72 h. In kind it is functional, cell-based.
Experiment [2] has as its system HL-60. The experiment can be described thus: Induction of apoptosis in human HL60 cells assessed as apoptotic cells at 30 uM after 12 hrs measured by morphological change. In kind it is functional.
In experiment [3] the test system is HL-60. In words: Cytotoxicity against human HL60 cells after 48 hrs by MTT assay. In kind it is functional, cell-based.
Experiment [4] concerns HL-60. The experiment can be described thus: Induction of apoptosis in human HL60 cells assessed as PARP cleavage at 30 uM after 12 hrs by Western blot analysis. In kind it is functional, cell-based.
Experiment [5] concerns U-937. The experiment can be described thus: Cytotoxicity against human U937 cells. In kind it is functional, cell-based.

Activity calls are given as the source filed them. The calls are words filed in the database; no cut-off is given here.

With `C=C1CO[C@@]2(O[C@H]3C[C@H]4[C@@H]5CC=C6C[C@@H](O)C[C@@H](O[C@@H]7OC[C@H](O)[C@H](O)[C@H]7O[C@@H]7O[C@@H](C)[C@H](O)[C@@H](OC(C)=O)[C@H]7OC(C)=O)[C@]6(C)[C@H]5CC[C@]4(C)[C@H]3[C@@H]2C)[C@@H](O)[C@H]1O` [DRACONIN B], the IC50 in experiment [1] worked out at 39 µM. For the same molecule, the Activity in experiment [2] came out at 9.4%.
As to `CO[C@]1(CC[C@@H](C)CO[C@@H]2O[C@H](CO)[C@@H](O)[C@H](O)[C@H]2O)O[C@H]2C[C@H]3[C@@H]4CC=C5C[C@@H](O[C@@H]6O[C@H](CO)[C@@H](O)[C@H](O[C@@H]7O[C@H](CO)[C@@H](O)[C@H](O)[C@H]7O)[C@H]6O[C@@H]6O[C@@H](C)[C@H](O)[C@@H](O)[C@H]6O)CC[C@]5(C)[C@H]4CC[C@]3(C)[C@H]2[C@@H]1C`, the IC50 in experiment [1] came out at 7.2 µM.
The same measure, in the same setting: with `C[C@@H]1CC[C@@]2(OC1)O[C@H]1C[C@H]3[C@@H]4CC=C5C[C@@H](O[C@@H]6O[C@H](CO)[C@@H](O)[C@H](O[C@@H]7O[C@H](CO)[C@@H](O)[C@H](O)[C@H]7O)[C@H]6O[C@@H]6O[C@@H](C)[C@H](O)[C@@H](O)[C@H]6O)CC[C@]5(C)[C@H]4CC[C@]3(C)[C@H]1[C@@H]2C` [GRACILLIN] the figure was 3.7 µM; with `C[C@@H]1CC[C@@]2(OC1)O[C@H]1C[C@H]3[C@@H]4CC=C5C[C@@H](O[C@@H]6O[C@H](CO)[C@@H](O[C@@H]7O[C@@H](C)[C@H](O)[C@@H](O)[C@H]7O)[C@H](O)[C@H]6O[C@@H]6O[C@@H](C)[C@H](O)[C@@H](O)[C@H]6O)CC[C@]5(C)[C@H]4CC[C@]3(C)[C@H]1[C@@H]2C` [DIOSCIN], 2 µM.
Same read-out and setting: under `C=C1CO[C@@]2(O[C@H]3C[C@H]4[C@@H]5CC=C6C[C@@H](O)C[C@@H](O[C@@H]7OC[C@H](O)[C@H](O)[C@H]7O[C@@H]7O[C@@H](C)[C@H](OC(C)=O)[C@@H](O)[C@H]7O)[C@]6(C)[C@H]5CC[C@]4(C)[C@H]3[C@@H]2C)[C@@H](O)[C@H]1O` stands > 100 µM.
The molecule `CO[C@]1(CC[C@@H](C)CO[C@@H]2O[C@H](CO)[C@@H](O)[C@H](O)[C@H]2O)O[C@H]2C[C@H]3[C@@H]4CC=C5C[C@@H](O[C@@H]6O[C@H](CO)[C@@H](O[C@@H]7O[C@@H](C)[C@H](O)[C@@H](O)[C@H]7O)[C@H](O)[C@H]6O[C@@H]6O[C@@H](C)[C@H](O)[C@@H](O)[C@H]6O)CC[C@]5(C)[C@H]4CC[C@]3(C)[C@H]2[C@@H]1C` [METHYLPROTODIOSCIN] came in with an IC50 in experiment [1] of 7.3 µM. In experiment [3], the result was Active.
Consider `C=C1CO[C@@]2(O[C@H]3C[C@H]4[C@@H]5CC=C6C[C@@H](O)C[C@@H](O[C@@H]7OC[C@H](O)[C@H](O)[C@H]7O[C@@H]7O[C@@H](C)[C@H](O)[C@@H](O)[C@H]7OC(C)=O)[C@]6(C)[C@H]5CC[C@]4(C)[C@H]3[C@@H]2C)[C@@H](O)[C@H]1O` [DRACONIN C], for which the IC50 in experiment [1] was > 100 µM. The Activity in experiment [2] was determined as 5%.
As to `C=C1CO[C@@]2(O[C@H]3C[C@H]4[C@@H]5CC=C6C[C@@H](O)C[C@@H](O[C@@H]7OC[C@H](O)[C@H](O)[C@H]7O[C@@H]7O[C@@H](C)[C@H](OC(C)=O)[C@@H](OC(C)=O)[C@H]7OC(C)=O)[C@]6(C)[C@H]5CC[C@]4(C)[C@H]3[C@@H]2C)[C@@H](O)[C@H]1O` [DRACONIN A], the results for the IC50 in experiment [1] and in experiment [5] were 9.7 µM and 6.8 µM, respectively. Further, the Activity was 35.1% in experiment [2] and “Dose-dependent effect” in experiment [4].
Turning to `C[C@@H]1CC[C@@]2(OC1)O[C@H]1C[C@H]3[C@@H]4CC=C5C[C@@H](O[C@@H]6O[C@H](CO)[C@@H](O[C@@H]7O[C@@H](C)[C@H](O)[C@@H](O)[C@H]7O)[C@H](O)[C@H]6O)CC[C@]5(C)[C@H]4CC[C@]3(C)[C@H]1[C@@H]2C`, in experiment [1], the IC50 is > 100 µM.

For the origin of these results see ChEMBL document CHEMBL1146531, “Steroidal saponins from the bark of Dracaena draco and their cytotoxic activities” (J Nat Prod, 2003).
